This is an account of results in BindingDB's records for doi:10.1074/jbc.M110.120576 (Pharmaleads, 2010).

A word on the IC50: it is the concentration that inhibits the measured activity by half. One may read the Ki as a dissociation constant, usually derived from enzyme kinetics or from competition with a known ligand. The low end stands for tighter binding, the high end for weaker binding.

This experiment deals with EEF1AKMT4-ECE2 readthrough transcript protein (Homo sapiens, UniProt P0DPD8). The experiment can be described thus: Enzymatic Assay. The text has this:
Inhibitory assay against ECE-2.

SMILES strings stand for the structures.

Sequence of EEF1AKMT4-ECE2 readthrough transcript protein (P0DPD8 whole entry): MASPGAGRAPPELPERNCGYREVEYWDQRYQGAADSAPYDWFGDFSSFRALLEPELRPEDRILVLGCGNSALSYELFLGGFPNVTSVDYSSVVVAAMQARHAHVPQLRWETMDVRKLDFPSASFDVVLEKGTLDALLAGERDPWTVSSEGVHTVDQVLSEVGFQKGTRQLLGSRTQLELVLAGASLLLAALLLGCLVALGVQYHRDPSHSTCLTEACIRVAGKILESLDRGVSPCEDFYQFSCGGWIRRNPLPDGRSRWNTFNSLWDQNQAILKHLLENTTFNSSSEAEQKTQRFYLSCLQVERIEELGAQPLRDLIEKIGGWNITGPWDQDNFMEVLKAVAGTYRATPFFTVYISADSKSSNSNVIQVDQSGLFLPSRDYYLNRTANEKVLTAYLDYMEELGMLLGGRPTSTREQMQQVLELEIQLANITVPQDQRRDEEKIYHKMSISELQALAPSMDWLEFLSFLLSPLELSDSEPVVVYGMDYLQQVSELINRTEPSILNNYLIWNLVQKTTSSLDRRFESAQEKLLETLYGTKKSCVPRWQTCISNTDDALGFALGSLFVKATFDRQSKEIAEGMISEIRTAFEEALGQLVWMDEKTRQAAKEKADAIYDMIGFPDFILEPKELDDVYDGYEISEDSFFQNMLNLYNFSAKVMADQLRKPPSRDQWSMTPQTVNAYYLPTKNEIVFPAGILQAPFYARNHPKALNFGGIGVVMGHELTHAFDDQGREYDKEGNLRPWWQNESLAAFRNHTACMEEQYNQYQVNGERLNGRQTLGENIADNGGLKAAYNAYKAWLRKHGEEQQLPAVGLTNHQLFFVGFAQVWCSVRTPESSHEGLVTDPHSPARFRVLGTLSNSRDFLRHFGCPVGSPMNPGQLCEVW

In the case of `C[C@H](NC(=O)[C@@H](CC(=O)NO)Cc1ccccc1)C(=O)O` [Kelatorphan], the IC50 is 380 nM and the affinity corresponds to a Ki of 195 nM.

The compound `O=C(N[C@@H](Cc1c[nH]c2ccccc12)C(=O)O)C(CS)C1CCc2cc(Br)ccc21` (stereo partly drawn) [(2S)-2-[2-(5-bromo-2,3-dihydro-1H-inden-1-yl)-3-sulfanylpropanamido]-3-(1H-indol-3-yl)propanoic acid, 1] showed an IC50 of 43.4 nM and a Ki of 22.3 nM.

In turn, `C[C@H](CS)C(=O)N1CCC[C@H]1C(=O)O` [(2S)-1-[(2S)-2-methyl-3-sulfanylpropanoyl]pyrrolidine-2-carboxylic acid] gave an IC50 of over 100000 nM and a Ki of over 100000 nM.

With `CC(C)C[C@H](NP(=O)(O)O[C@@H]1O[C@@H](C)[C@H](O)[C@@H](O)[C@H]1O)C(=O)N[C@@H](Cc1c[nH]c2ccccc12)C(=O)O` [(S)-2-{(R)-2-[Hydroxy-((2R,3R,4R,5R,6S)-3,4,5-trihydroxy-6-methyl-tetrahydro-pyran-2-yloxy)-phosphorylamino]-4-methyl-pentanoylamino}-3-(1H-indol-3-yl)-propionic acid], the midpoint of inhibition, the IC50, lay at 2.33 nM and the affinity, expressed as Ki, was 1.2 nM.

With `O=C(O)[C@H](Cc1c[nH]c2ccccc12)NC(=O)[C@H](CS)C1CCc2ccccc21` (stereo partly drawn) [(2S)-2-[(2R)-2-(2,3-dihydro-1H-inden-1-yl)-3-sulfanylpropanamido]-3-(1H-indol-3-yl)propanoic acid, 2], the IC50 worked out at 15.1 nM and the Ki was found to be 7.7 nM.

Turning to `O=C(O)CC(=O)N[C@@H](CS)Cc1ccccc1` [Retrothiorphan], the IC50 is over 10000 nM and the Ki was over 10000 nM.

Take `O=C(O)CNC(=O)[C@@H](CS)Cc1ccccc1` [2-(2-benzyl-3-sulfanylpropanamido)acetic acid]: the IC50 was over 100000 nM and the Ki is over 100000 nM.
